Reference: patent publication US20210186879A1, “TARGETED DELIVERY OF HYDROPHILIC DRUGS TO LUNG” (DOUBLE BOND PHARMACEUTICALS AB, priority 2016, published 2021)
One block for each compound: values may come before it.

How the values were obtained:
[1] = Solubility in aqueous ethanol (UV method); format: physicochemical; conditions: for Solubility in 30% ethanol: doxorubicin salts; for Solubility in 20% ethanol: doxycycline salts, Table 9, in mg/mL
Method: The mixture was centrifuged at 3000 rpm for 10 min and the supernatant filtered through a 0.2 micrometer filter to remove aggregates of undissolved solid product. The solubility of the compound was determined by a UV method. Particle size analysis was accomplished by laser diffraction method.

[2] = In vivo distribution of doxorubicin in lung and blood serum of Wistar rats; conditions: 4 hours; for Blood serum DOX / Lung tissue DOX: 5 mg/kg i.v. single bolus, ± SD; for Blood serum Relative difference / Lung tissue Relative difference: relative to control CI-DOX (1)
Method: (§1) For in vivo investigation both rats and rabbits were used: female Wistar rats 60-75 days old weighing 300 g±30 g and Californian breed male rabbits 75-90 days old weighing 2000 g±250 g were selected. […] Different doxorubicin containing formulations with a total doxorubicin dose 5 mg/kg were administered via a single bolus injection into the tail for rats and via a slow flow of 1 ml/min in the marginal ear vein for rabbits.
(§2) Five or six pieces of lung tissue of a total weight of about 1 g were taken from different parts of a lung. The samples were homogenized with a solution of aqueous ethanol containing HCl for 20 s at 7000 rpm and for 10 s at 11000 rpm. […] Doxorubicin and doxycycline (DOC) concentration in the final supernatant was determined with fluorometric analysis and high-performance liquid chromatography respectively.
An aqueous solution of doxorubicin hydrochloride, an aqueous suspension of doxorubicin alkane sulfate and an aqueous suspension of doxorubicin alkyl sulfonate were administered via a single bolus injection into the tail Animals were sacrificed after 4 hours after administered via a single bolus injection into the tail; total doxorubicin dose 5 mg/kg. […] The results are summarized in Table 7 and illustrated in FIG. 10.

[3] = In vivo distribution of doxorubicin in lung and femoral muscle of Californian rabbits; conditions: 4 hours; for Femoral muscle DOX / Lung tissue DOX: 1.25 mg/kg i.v. marginal ear vein, ± SD
Method: as §1, §2
Suspension of complexes of doxorubicin and doxorubicin hydrochloride were administered via a slow flow of 1 ml/min to rabbits in the marginal ear vein with a total doxorubicin dose 1.25 mg/kg. Animals were sacrificed after 4 hours after administration. Concentration of doxorubicin in lung and femoral muscle was determined in accordance to the procedure described above. As it is seen from table 8 the concentration of doxorubicin in femoral muscle as a representation of a system concentration is not increased for complexes compared with doxorubicin hydrochloride.

[4] = In vivo distribution of doxycycline in lung and blood serum of Wistar rats; conditions: 30 min; for Blood serum Difference / Lung tissue Difference: relative to control CI-DOX (1); for Blood serum DOX / Lung tissue DOX: doxycycline, 3 mg/kg i.v. single bolus, ± SD
Method: as §2

[5] = doxorubicin alkyl sulfates and alkane sulfonates, 30% ethanol (v/v)
[6] = doxycycline alkane sulfonates and alkyl sulfates, 20% aqueous ethanol
[7] = irinotecan alkane sulfonates, 30% ethanol (v/v) per table title
[8] = mitoxantrone alkyl sulfates and alkane sulfonates, 30% ethanol (v/v)

Compound: CCCCCCCCCCOS(=O)(=O)O.COc1cccc2c1C(=O)c1c(O)c3c(c(O)c1C2=O)CC(O)(C(=O)CO)CC3OC1CC(N)C(O)C(C)O1 (stereo not drawn) [doxorubicin CnH2n+1OSO3^− n=10]
Solubility [1, 5]: 507.7 µg/mL

Compound: CCCCCCCCCCCCOS(=O)(=O)O.COc1cccc2c1C(=O)c1c(O)c3c(c(O)c1C2=O)C[C@@](O)(C(=O)CO)C[C@@H]3O[C@H]1C[C@H](N)[C@H](O)[C@H](C)O1 [doxorubicin CnH2n+1OSO3^− n=12]
Blood serum DOX [2]: 0.021 ± 0.007 µg/kg
Lung tissue DOX [2]: 0.77 ± 0.19 µg/kg
Femoral muscle DOX [3]: 0.20 ± 0.02 µg/kg
Lung tissue DOX [3]: 1.61 ± 0.25 µg/kg

Compound: CCCCCCCCCCCCCCCCCCOS(=O)(=O)O.COc1cccc2c1C(=O)c1c(O)c3c(c(O)c1C2=O)CC(O)(C(=O)CO)CC3OC1CC(N)C(O)C(C)O1 (stereo not drawn) [doxorubicin CnH2n+1OSO3^− n=18]
Solubility [1, 5]: 2.6 µg/mL

Compound: CCCCCCCCCCS(=O)(=O)O.COc1cccc2c1C(=O)c1c(O)c3c(c(O)c1C2=O)CC(O)(C(=O)CO)CC3OC1CC(N)C(O)C(C)O1 (stereo not drawn) [doxorubicin CnH2n+1SO3^− n=10]
Solubility [1, 5]: 1064 µg/mL

Compound: CCCCCCCCCCCCS(=O)(=O)O.COc1cccc2c1C(=O)c1c(O)c3c(c(O)c1C2=O)CC(O)(C(=O)CO)CC3OC1CC(N)C(O)C(C)O1 (stereo not drawn) [doxorubicin CnH2n+1SO3^− n=12]
Blood serum DOX [2]: 0.014 ± 0.003 µg/kg
Lung tissue DOX [2]: 0.88 ± 0.09 µg/kg
Blood serum Relative difference [2]: 0.75
Lung tissue Relative difference [2]: 1.24

Compound: CCCCCCCCCCCCCCS(=O)(=O)O.COc1cccc2c1C(=O)c1c(O)c3c(c(O)c1C2=O)CC(O)(C(=O)CO)CC3OC1CC(N)C(O)C(C)O1 (stereo not drawn) [doxorubicin CnH2n+1SO3^− n=14]
Solubility [1, 5]: 45.96 µg/mL

Compound: CCCCCCCCCCCCCCCCS(=O)(=O)O.COc1cccc2c1C(=O)c1c(O)c3c(c(O)c1C2=O)CC(O)(C(=O)CO)CC3OC1CC(N)C(O)C(C)O1 (stereo not drawn) [doxorubicin CnH2n+1SO3^− n=16]
Solubility [1, 5]: 11.94 µg/mL
Solubility in 30% ethanol ([1]; Table 7): 0.012
Solubility in 30% ethanol ([1]; Table 8): 0.0119
Blood serum DOX [2]: 0.019 ± 0.007 µg/kg
Lung tissue DOX [2]: 6.11 ± 0.75 µg/kg
Blood serum Relative difference [2]: 1.04
Lung tissue Relative difference [2]: 8.61
Femoral muscle DOX [3]: 0.12 ± 0.06 µg/kg
Lung tissue DOX [3]: 10.70 ± 0.77 µg/kg
Femoral muscle Relative difference ([3]; relative to control CI-DOX (1)): 0.52
Lung tissue Relative difference ([3]; relative to control CI-DOX (1)): 12.89

Compound: CCCCCCCCCCCCCCCCCCS(=O)(=O)O.COc1cccc2c1C(=O)c1c(O)c3c(c(O)c1C2=O)CC(O)(C(=O)CO)CC3OC1CC(N)C(O)C(C)O1 (stereo not drawn) [doxorubicin CnH2n+1SO3^− n=18]
Solubility [1, 5]: 2.79 µg/mL

Compound: CC1c2cccc(O)c2C(O)=C2C(=O)C3(O)C(O)=C(C(N)=O)C(=O)C(N(C)C)C3C(O)C21.CCCCCCCCCCOS(=O)(=O)O (stereo not drawn) [doxycycline CnH2n+1OSO3^− n=10]
Solubility [1, 6]: 3777 µg/mL

Compound: CC1c2cccc(O)c2C(O)=C2C(=O)C3(O)C(O)=C(C(N)=O)C(=O)C(N(C)C)C3C(O)C21.CCCCCCCCCCCCOS(=O)(=O)O (stereo not drawn) [doxycycline CnH2n+1OSO3^− n=12]
Blood serum Difference [4]: 1.10
Lung tissue Difference [4]: 3.20
Blood serum DOX [4]: 127 ± 22 ng/mL
Lung tissue DOX [4]: 551 ± 185 ng/mL

Compound: CC1c2cccc(O)c2C(O)=C2C(=O)C3(O)C(O)=C(C(N)=O)C(=O)C(N(C)C)C3C(O)C21.CCCCCCCCCCCCCCOS(=O)(=O)O (stereo not drawn) [doxycycline CnH2n+1OSO3^− n=14]
Solubility [1, 6]: 117.8 µg/mL
Solubility in 20% ethanol [1]: 0.1178
Blood serum Difference [4]: 0.39
Lung tissue Difference [4]: 9.20
Blood serum DOX [4]: 45 ± 1 ng/mL
Lung tissue DOX [4]: 1582 ± 101 ng/mL

Compound: CC1c2cccc(O)c2C(O)=C2C(=O)C3(O)C(O)=C(C(N)=O)C(=O)C(N(C)C)C3C(O)C21.CCCCCCCCCCCCCCCCOS(=O)(=O)O (stereo not drawn) [doxycycline CnH2n+1OSO3^− n=16]
Solubility [1, 6]: 31.99 µg/mL

Compound: CC1c2cccc(O)c2C(O)=C2C(=O)C3(O)C(O)=C(C(N)=O)C(=O)C(N(C)C)C3C(O)C21.CCCCCCCCCCCCCCCCCCOS(=O)(=O)O (stereo not drawn) [doxycycline CnH2n+1OSO3^− n=18]
Solubility [1, 6]: 5.23 µg/mL

Compound: CCCCCCCCOS(=O)(=O)O.CCCCCCCCOS(=O)(=O)O.O=C1c2c(O)ccc(O)c2C(=O)c2c(NCCNCCO)ccc(NCCNCCO)c21 [mitoxantrone CnH2n+1OSO3^− n=8]
Solubility [1, 8]: 780.6 µg/mL

Compound: CCCCCCCCCCOS(=O)(=O)O.CCCCCCCCCCOS(=O)(=O)O.O=C1c2c(O)ccc(O)c2C(=O)c2c(NCCNCCO)ccc(NCCNCCO)c21 [mitoxantrone CnH2n+1OSO3^− n=10]
Solubility [1, 8]: 175.8 µg/mL

Compound: CCCCCCCCCCCCCCOS(=O)(=O)O.CCCCCCCCCCCCCCOS(=O)(=O)O.O=C1c2c(O)ccc(O)c2C(=O)c2c(NCCNCCO)ccc(NCCNCCO)c21 [mitoxantrone CnH2n+1OSO3^− n=14]
Solubility [1, 8]: 7.2 µg/mL

Compound: CCCCCCCCS(=O)(=O)O.CCCCCCCCS(=O)(=O)O.O=C1c2c(O)ccc(O)c2C(=O)c2c(NCCNCCO)ccc(NCCNCCO)c21 [mitoxantrone CnH2n+1SO3^− n=8]
Solubility [1, 8]: 1348 µg/mL

Compound: CCCCCCCCCCS(=O)(=O)O.CCCCCCCCCCS(=O)(=O)O.O=C1c2c(O)ccc(O)c2C(=O)c2c(NCCNCCO)ccc(NCCNCCO)c21 [mitoxantrone CnH2n+1SO3^− n=10]
Solubility [1, 8]: 294.9 µg/mL

Compound: CCCCCCCCCCCCS(=O)(=O)O.CCCCCCCCCCCCS(=O)(=O)O.O=C1c2c(O)ccc(O)c2C(=O)c2c(NCCNCCO)ccc(NCCNCCO)c21 [mitoxantrone CnH2n+1SO3^− n=12]
Solubility [1, 8]: 683.1 µg/mL

Compound: CCCCCCCCCCCCCCS(=O)(=O)O.CCCCCCCCCCCCCCS(=O)(=O)O.O=C1c2c(O)ccc(O)c2C(=O)c2c(NCCNCCO)ccc(NCCNCCO)c21 [mitoxantrone CnH2n+1SO3^− n=14]
Solubility [1, 8]: 2.03 µg/mL

Now from value to compound:

Solubility [1, 6]: 3165 µg/mL
Compound: CC1c2cccc(O)c2C(O)=C2C(=O)C3(O)C(O)=C(C(N)=O)C(=O)C(N(C)C)C3C(O)C21.CCCCCCCCCCS(=O)(=O)O (stereo not drawn) [doxycycline CnH2n+1SO3^− n=10]

Solubility [1, 6]: 320.3 µg/mL
Solubility in 20% ethanol [1]: 0.3203
Blood serum Difference [4]: 0.53
Lung tissue Difference [4]: 5.48
Blood serum DOX [4]: 61 ± 7 ng/mL
Lung tissue DOX [4]: 943 ± 600 ng/mL
Compound: CC1c2cccc(O)c2C(O)=C2C(=O)C3(O)C(O)=C(C(N)=O)C(=O)C(N(C)C)C3C(O)C21.CCCCCCCCCCCCS(=O)(=O)O (stereo not drawn) [doxycycline CnH2n+1SO3^− n=12]

Solubility [1, 6]: 55.1 µg/mL
Compound: CC1c2cccc(O)c2C(O)=C2C(=O)C3(O)C(O)=C(C(N)=O)C(=O)C(N(C)C)C3C(O)C21.CCCCCCCCCCCCCCS(=O)(=O)O (stereo not drawn) [doxycycline CnH2n+1SO3^− n=14]

Solubility [1, 6]: 10.34 µg/mL
Solubility in 20% ethanol [1]: 0.0103
Blood serum Difference [4]: 0.22
Lung tissue Difference [4]: 11.74
Blood serum DOX [4]: 25 ± 2 ng/mL
Lung tissue DOX [4]: 2020 ± 117 ng/mL
Compound: CC1c2cccc(O)c2C(O)=C2C(=O)C3(O)C(O)=C(C(N)=O)C(=O)C(N(C)C)C3C(O)C21.CCCCCCCCCCCCCCCCS(=O)(=O)O (stereo not drawn) [doxycycline CnH2n+1SO3^− n=16]

Solubility [1, 6]: 1.81 µg/mL
Compound: CC1c2cccc(O)c2C(O)=C2C(=O)C3(O)C(O)=C(C(N)=O)C(=O)C(N(C)C)C3C(O)C21.CCCCCCCCCCCCCCCCCCS(=O)(=O)O (stereo not drawn) [doxycycline CnH2n+1SO3^− n=18]

Solubility [1, 7]: 834.8 µg/mL
Compound: CCCCCCCCCCS(=O)(=O)O.CCc1c2c(nc3ccc(OC(=O)N4CCC(N5CCCCC5)CC4)cc13)-c1cc3c(c(=O)n1C2)COC(=O)C3(O)CC (stereo not drawn) [irinotecan alkane sulfonate n=10]

Solubility [1, 7]: 154.5 µg/mL
Compound: CCCCCCCCCCCCS(=O)(=O)O.CCc1c2c(nc3ccc(OC(=O)N4CCC(N5CCCCC5)CC4)cc13)-c1cc3c(c(=O)n1C2)COC(=O)C3(O)CC (stereo not drawn) [irinotecan alkane sulfonate n=12]

Solubility [1, 7]: 70.64 µg/mL
Compound: CCCCCCCCCCCCCCS(=O)(=O)O.CCc1c2c(nc3ccc(OC(=O)N4CCC(N5CCCCC5)CC4)cc13)-c1cc3c(c(=O)n1C2)COC(=O)C3(O)CC (stereo not drawn) [irinotecan alkane sulfonate n=14]

Solubility [1, 7]: 14.76 µg/mL
Compound: CCCCCCCCCCCCCCCCS(=O)(=O)O.CCc1c2c(nc3ccc(OC(=O)N4CCC(N5CCCCC5)CC4)cc13)-c1cc3c(c(=O)n1C2)COC(=O)C3(O)CC (stereo not drawn) [irinotecan alkane sulfonate n=16]
